Measurements from patent US9975911B2, “Antibacterial compounds and biological applications thereof” (LABORATOIRE BIODIM, priority 2012, dated 2018).
Where two headings read alike, the source gives them in different places.

Experiments:
GmhA of E. coli = GmhA of E. coli (Escherichia coli, UniProt P63224); assay: Inhibition of the enzymatic activity of GmhA (luminescent assay); assay type: biochemical
Experimental: Inhibition of the Enzymatic Activity of GmhA (Luminescent Assay):
The assay buffer “AB” contained 50 mM Hepes pH7.5, 1 mM MnCl2, 25 mM KCl, 0.012% Triton-X100, 1 mM dithiothreitol (DTT) and 0.1 μM Myelin basic protein (MBP). The following components were added in a white polystyrene Costar plate up to a final volume of 30 μL: 10 μL inhibitor dissolved in DMSO/water 50/50, and 20 μL GmhA of E. coli in AB. After 30 min of pre-incubation at room temperature, 30 μL of Substrates mix in AB were added in each well to a final volume of 60 μL. This reaction mixture was then composed of 2 nM GmhA, 3 μM sedoheptulose-7-phosphate (Sigma), 3 μM ATP (Sigma) and 50 nM HldE of E. coli in assay buffer. After 30 minutes of incubation at room temperature, 100 μL of the revelation mix were added to a final volume of 160 μL, including the following constituents at the respective final concentrations: 10000 light units/mL luciferase (Sigma), 20 μM D-luciferin (Sigma), 100 μM N-acetylcysteamine (Aldrich). Luminescence intensity was immediately measured on Luminoskan (Thermofisher) and converted into inhibition percentages. For IC50 determinations, the inhibitor was tested at 6 to 10 different concentrations, and the related inhibitions were fitted to a classical Langmuir equilibrium model using XLFIT (IDBS).

[1] = test system: E. coli C7 (018:K1:H7) LPS heptosylation; assay: Inhibition of E. coli C7 (018:K1:H7) LPS biosynthesis (LPS gel electrophoresis, Re-LPS band); assay type: cell-based; details: read-out: EC50 of E. coli C7 LPS heptosylation inhibition
Experimental: Inhibition of E. coli C7 (018:K1:H7) LPS Biosynthesis:
The inner core contains several heptose residues. An inhibitor of the LPS heptosylation pathway should therefore reduce dramatically the size of LPS from full-length to the so-called ‘Re-LPS’ limited to lipid A branched with 2 Kdo residues.
The effect of heptosylation inhibitors on E. coli LPS was assessed as described below. The compounds to be tested were prepared in deionised water/DMSO (50/50) solutions and added (25 μL) in sterile culture microtubes. The strain used in this study was E. coli C7 (018:K1:H7). The bacteria were isolated on tryptic soy agar (TSA) overnight. Isolated colonies were cultured in 10 mL of Luria-Bertani medium (LB) at 37° C. up to an optical density (OD) of typically 0.15. These exponentially growing bacteria were finally diluted to 5e5 cfu/mL and added in each well (225 μL) for incubation with the compounds at 37° C. for approximately 5 hours, up to an optical density of ≈0.2-0.4. Some test compounds e.g. phospho-sugars required Glucose-6-Phosphate (G6P, from Sigma) to be added in the culture medium in order to activate their active transport into the bacterial cytosol via the phospho-sugar transporter UhpT. This was achieved by adding in the culture tube 2.5 μL of a 10 mM water solution of G6P (100 μM final concentration).
Bacterial cultures were normalized via OD determination, pelleted and washed with 1 mL Phosphate-Buffer-Saline (PBS). The pellets were then denatured for 10 min at 95-100° C. in 50 μL of Sodium dodecyl sulphate 0.2% (SDS), beta-mercaptoethanol 1%, Glycerol 36%, Tris pH 7.4 30 mM and bromophenol blue 0.001%. Samples were cooled down to room temperature, supplemented with 1.5 μl of proteinase K at 20 mg/mL, incubated for 1 hour at 55° C. and centrifuged for […] at 13,000 rpm at 25° C. The resulting supernatant, containing LPS, was finally analysed by SDS-PAGE electrophoresis.
LPS SDS-PAGE Electrophoresis:
Polyacrylamide gels (16%/4% acrylamide for separation and concentration respectively) were prepared, loaded with 8 μL of LPS extracts and migrated.
Gels were incubated overnight in 5% acetic acid/40% ethanol/deionised water, treated by 1% periodic acid/5% acetic acid for 15 min, washed 4 times for 10 min in deionised water and finally incubated for 18 min in the dark in a silver nitrate solution composed of 56 mL NaOH 0.1N, 4 mL ammoniac 33%, 45 mL AgNO3 5% (Tsai and Frasch) and 195 mL deionised water. Gels were then washed extensively in deionised water for 30 min and incubated for 10-15 min (up to LPS bands apparition) in the revelation mix composed of 300 mL deionised water, 300 μL formaldehyde 36.5% (Fluka) and 100 μL citric acid 2.3M. The revelation was stopped by incubating the gels in acetic acid 10% for 5 min. Gels were finally washed in deionised water, numerized with a Samsung PL51 camera and analysed by ImageJ software. The percentage of inhibition of LPS heptosylation was defined as the relative area of the Re-LPS band compared to the cumulated areas of Re-LPS and Core-LPS bands.

E. coli C7 (O18:K1:H7) = assay: Combination with antibiotics on E. coli C7 (MIC of the antibiotics); assay type: cell-based; details: in the presence of 100 μM G6P; for MIC of the antibiotic alone: without test compound
Experimental: Combination with Antibiotics on E. coli C7 (018:K1:H7):
The compound to be tested was diluted in 50 mM HEPES buffer pH 7.4 from 10 mM stock solution. 5 μL of compound dilution or buffer were distributed in a sterile clear round bottom 96-well polystyrene microplate (Corning). 5 μL of serial 2-fold dilutions of reference antibiotics (Erythromycin (Fluka), Rifampicin (Fluka), or Synercid® (Monarch Pharmaceuticals)) in DMSO were added. An exponentially growing preculture of E. coli C7 (O18:K1:H7) in LB was diluted to 1e4 cfu/mL and supplemented with 100 μM G6P, and 90 μL of this suspension were added to the microplates. After overnight incubation at 37° C., the minimal inhibitory concentration (MIC) of the antibiotics were determined for each test compound concentration, as the lowest antibiotic concentration for which no bacterial pellet is visible without magnification.

[2] = test compound at concentrations <1 mM

Sequence of GmhA of E. coli (P63224 whole entry): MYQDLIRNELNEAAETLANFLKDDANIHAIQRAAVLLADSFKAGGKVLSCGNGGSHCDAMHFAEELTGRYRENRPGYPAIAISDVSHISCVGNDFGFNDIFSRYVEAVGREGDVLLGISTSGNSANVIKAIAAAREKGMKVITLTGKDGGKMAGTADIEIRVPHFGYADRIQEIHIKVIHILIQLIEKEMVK

With `O=CN(O)C[C@H](O)[C@H](O)[C@H](O)CC(F)P(=O)(O)O` (stereo partly drawn) [Example 9, [1-Fluoro-6-(formyl-hydroxy-amino)-(3R,4R,5S)-3,4,5-trihydroxy-hexyl]-phosphonic acid] the IC50 (GmhA of E. coli; IC50 GmhA E. coli) was 0.015 µM and the EC50 ([1]; Escherichia coli) was 76 µM.

In the case of `CO[C@H]1/C=C/O[C@@]2(C)Oc3c(C)c(O)c4c(O)c(c(/C=N/N5CCN(C)CC5)c(O)c4c3C2=O)NC(=O)/C(C)=C\C=C\[C@H](C)[C@H](O)[C@@H](C)[C@@H](O)[C@@H](C)[C@H](OC(C)=O)[C@@H]1C` [rifampicin, Rifampicin, reference compound], the “MIC of the antibiotic alone” value (E. coli C7 (O18:K1:H7)) is reported as 4 µg/mL.

For `CC[C@H]1OC(=O)[C@H](C)[C@@H](O[C@H]2C[C@@](C)(OC)[C@@H](O)[C@H](C)O2)[C@H](C)[C@@H](O[C@@H]2O[C@H](C)C[C@H](N(C)C)[C@H]2O)[C@](C)(O)C[C@@H](C)C(=O)[C@H](C)[C@@H](O)[C@]1(C)O` [erythromycin, Erythromycin, reference compound], the “MIC of the antibiotic alone” value (E. coli C7 (O18:K1:H7)) was 32 µg/mL.

In the case of `O=CN(O)C[C@H](O)[C@H](O)[C@H](O)CCP(=O)(O)O` [Example 3, [6-(Formyl-hydroxy-amino)-(3R,4R,5S)-3,4,5-trihydroxy-hexyl]-phosphonic acid], the IC50 (GmhA of E. coli; IC50 GmhA E. coli) is reported as 0.003 µM and the EC50 ([1]; Escherichia coli) is reported as 18 µM.

`O=CN(O)C(CO)[C@H](O)[C@H](O)[C@H](O)CCP(=O)(O)O` (single isomer, unassigned) [Example 8] showed an IC50 (GmhA of E. coli; read-out: IC50 GmhA E. coli) of 0.027 µM and an EC50 [1] of 180 µM.

For `O=CN(O)C[C@H](O)[C@H](O)[C@H](O)COP(=O)([O-])O.[Na+]` [Example 2, N-hydroxy-N-formylamino-1-deoxy-D-ribitol-5-phosphate], the IC50 (GmhA of E. coli; read-out: IC50 GmhA E. coli) was 0.0024 µM, the EC50 ([1]; Escherichia coli) was 18 µM and the “MIC of Synercid in combination with the compound” value (E. coli C7 (O18:K1:H7); [2]) was 8 µg/mL. For the same compound, the “MIC of erythromycin in combination with the compound” value (E. coli C7 (O18:K1:H7); [2]) was 1 µg/mL, the “MIC of rifampicin in combination with the compound” value (E. coli C7 (O18:K1:H7); [2]) was 0.25 µg/mL and the “potentiation of Synercid” value (E. coli C7 (O18:K1:H7); [2]) was 16 fold. It also gave a potentiation of erythromycin (E. coli C7 (O18:K1:H7); [2]) of 32 fold and a potentiation of rifampicin (E. coli C7 (O18:K1:H7); [2]) of 16 fold.

`O=CN(O)C(CO)[C@H](O)[C@H](O)[C@H](O)CCP(=O)(O)O` (single isomer, unassigned) [Example 7] showed an IC50 (GmhA of E. coli; read-out: IC50 GmhA E. coli) of 0.046 µM and an EC50 ([1]; Escherichia coli) of 220 µM.
